Columns and labels:
[1] = Metabolic stability, human liver microsomal degradation; format: in vitro ADME; conditions: human liver microsomes; read-out: Metabolic Stability (Human) t½ (converted)
Experimental: (§1) LC-MS Method 2. Chromatographic separation was performed on an Acquity UPLC BEH C18 1.7 μm, 2.1×50 mm column (Waters Corporation, Milford, Mass.) or a Luna Omega 1.6 μm C18, 2.1×50 mm column (Phenomenex, Torrance, Calif.) using an Acquity ultra performance liquid chromatography system. Data were acquired using Masslynx v. 4.1 and analyzed using the Openlynx software suite. This was coupled to an Acquity photodiode array detector, which acquired UV data from 210-400 nm. The flow was then split, with half directed to an evaporative light scattering detector (ELSD) and half to an SQ mass spectrometer. The total flow rate was 1 mL/min. The sample injection volume was 10 μL. The UPLC column was maintained at 60° C. and the gradient program with either basic mobile phase (A1, 10 mM ammonium bicarbonate in MilliQ H2O; B1, 0.1% formic acid in acetonitrile) or formic mobile phase (A1, 0.1% formic acid in MilliQ H2O; B1, 0.1% formic acid in acetonitrile) based on the compounds' physical and chemical properties. The mass spectrometer was operated in positive-ion mode with electrospray ionization. The conditions were as follows; capillary voltage 3.4 kV, cone voltage 30 V, source temperature 130° C., desolvation temperature 400° C., desolvation gas 800 L/hr, cone gas 100 L/hr. A full scan range from m/z=110-1000 in 0.2 s was used to acquire MS data. The ELSD-drift tube temperature was set at 52° C.
The stability of compounds to human liver microsomal degradation, i.e., metabolic stability, was determined as described previously (see North, E. J., et al, Bioorg. Med. Chem. (2013) 21(9):2587-2599) and the rate of degradation was monitored by LC-MS analysis using multiple sampled time points as described herein above in LC-MS Method 2. Metabolic stability was evaluated via the half-life from least squares fit of the concentration remaining at the time points based on first-order kinetics.

in vitro = in vitro ADME; conditions: human plasma, 37° C., read-out: Plasma Stability (Human) t½ (converted)
Experimental: as §1
Plasma stability was determined after incubation in human plasma for various incubation time, i.e., incubation times of 0, 3, 24, and 48 hour were used. DMSO stock solutions of test compounds were prepared at 10 mM concentration. 1.8 μL of each test compound was each added directly to 1.8 mL of human plasma to get the final concentration of 10 μM. This compound/matrix was mixed and 70 μL was transferred to 4 time points plates (each in triplicate wells). […] The plasma stability was evaluated via the half-life from least-squares fit of the multiple time points based on first-order kinetics.

[2] = biological target: Mycobacterium smegmatis 70S bacterial ribosomes; assay: Ribosomal inhibition assay (luciferase-based protein synthesis inhibition); format: biochemical; conditions: purified M. smegmatis 70S ribosomes, firefly luciferase mRNA
Experimental: In vitro activity was also assessed using a ribosomal inhibition assay. Briefly, luciferase-based protein synthesis inhibition assays were performed in translation reaction as described previously (Bruell, et al. Biochemistry. 2008 47 (34), 8828-8839), using purified Mycobacterium smegmatis 70S bacterial ribosomes and firefly luciferase mRNA prepared in vitro using T7 RNA polymerase. IC50 values represent the drug concentration that inhibits luciferase activity by 50%.

M. tuberculosis H37Rv = assay: Minimum inhibitory concentration (MIC), microbroth dilution; format: cell-based; conditions: Mycobacterium tuberculosis, H37RV, 168 h, read-out: MIC (H37Rv)

CN[C@@H]1[C@H](O)[C@H](NC)[C@H]2O[C@]3(O)[C@H](O[C@@H]2[C@H]1O)O[C@H](C)C[C@H]3NC(=O)Cc1ccc(OP(=O)(O)O)cn1 [Compound 3408, 6-(2-oxo-2-(((2R,4R,4a5,5aR,6S,7S,8R,9S,9aR,10aS)-4a,7,9-trihydroxy-2-methyl-6,8-bis(methylamino)decahydro-2H-benzo[b]pyrano[2,3-e][1,4]dioxin-4-yl)amino)ethyl)pyridin-3-yl dihydrogen phosphate]
half-life [1]: < 5 min | half-life at 10 µM (in vitro): < 5 min | IC50 (M. smegmatis) [2]: 6.70 µg/mL | MIC (M. tuberculosis H37Rv): 100 µg/mL

Source: US20210388012A1, “METHODS AND COMPOSITIONS FOR PRODRUG FORMS OF SPECTINOMYCIN AND SPECTINAMIDE ANALOGS” (priority 2018, published 2021)
